From the supplement of paper PMC10307832 come the findings set out here.

Holding throughout (test): relative viability (nuclei count vs DMSO), 5 days (fraction); higher = more cells survive
Compound in assay [1]: Cc1ccc(-n2nc(C(C)(C)C)cc2NC(=O)Nc2ccc(OCCN3CCOCC3)c3ccccc23)cc1 [Doramapimod] + N=C(N)NC(=N)NCCc1ccccc1 [Phenformin] (partner 250 µM)
The method in brief:
(§1)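 Relative viability divides the nuclei count in treated wells by that in vehicle wells. Lung cancer cell lines were seeded in 1536-well plates, dosed by pin tool the next day, and fixed and stained after 5 days in one step with final 0.05% Triton X-100, 1% formaldehyde and 1 ug/ml Hoechst. Dosing was a single drug or a fixed anchor-drug dose plus five library-drug doses (not always all listed) in √10 steps, and values are medians of duplicate plates imaged at 4×.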

Compound in assay [2]: Cn1c(Nc2ccc(C(F)(F)F)cc2)nc2cc(Oc3ccnc(-c4ncc(C(F)(F)F)[nH]4)c3)ccc21 [RAF265] + CS(=O)(=O)CCNCc1ccc(-c2ccc3ncnc(Nc4ccc(OCc5cccc(F)c5)c(Cl)c4)c3c2)o1 [Lapatinib] (partner 2 µM)
The method in brief:
as §1

Compound in assay [3]: Cn1c(Nc2ccc(C(F)(F)F)cc2)nc2cc(Oc3ccnc(-c4ncc(C(F)(F)F)[nH]4)c3)ccc21 [RAF265] + C[C@@H](Oc1cc(-c2cnn(C3CCNCC3)c2)cnc1N)c1c(Cl)ccc(F)c1Cl [Crizotinib] (partner 1 µM)
The method in brief: as §1

Compound in assay [4]: C1=CC=C2C(=C1)C=CC(=C2SSC3=C(C=CC4=CC=CC=C43)O)O [IPA-3] + COc1cc2c(Oc3ccc(NC(=O)C4(C(=O)Nc5ccc(F)cc5)CC4)cc3F)ccnc2cc1OCCCN1CCOCC1 [Foretinib] (partner 0.25 µM)
The method in brief:
as §1

As to UMC-11, the relative viability in assay [1] (first compound 0.02 µM) is 0.319; in assay [1] (first compound 0.06325 µM), 0.32; in assay [1] (first compound 0.2 µM) it was 0.339; in assay [1] (first compound 0.6325 µM), 0.368; in assay [1] (first compound 2 µM), 0.309; in assay [2] (first compound 0.01 µM) it was 0.97. In addition, the relative viability in assay [2] (first compound 0.03162 µM) was determined as 0.859; in assay [2] (first compound 0.1 µM), 0.968; in assay [2] (first compound 0.3162 µM) it was 1.07; in assay [2] (first compound 1 µM) it was 0.776; in assay [3] (first compound 0.01 µM), 0.676; in assay [3] (first compound 0.03162 µM), 0.604. Moreover, the relative viability in assay [3] (first compound 0.1 µM) was 0.602; in assay [3] (first compound 0.3162 µM), 0.648; in assay [3] (first compound 1 µM), 0.501; in assay [4] (first compound 0.2 µM) it was 1.11; in assay [4] (first compound 0.6325 µM), 0.983; in assay [4] (first compound 2 µM), 1.08. In addition, the relative viability in assay [4] (first compound 6.325 µM) was found to be 1; in assay [4] (first compound 20 µM) it was 1.25.
